For data set [1], the system named is co-culture of Normal Human Epidermal Keratinocytes (NHEKs) and Normal Human Melanocytes (NHMs). The data set can be described thus: Melanin production in NHK/NHM co-culture: comparison (Example 7). It counts as cell-based. To be noted: 5 days; for effect on melanin synthesis / melanin content (in words): taxifolin glucoside 0.13 μg/mL alone, + N-acetyl tyrosine 15 μg/mL or + L-tyrosine 15 μg/mL. From the text:
The aim of this study was to compare the effect of the hair care active agent of the present invention, which comprises taxifolin glucoside and N-acetyl tyrosine, with those of L-tyrosine (positive reference), of taxifolin glucoside, and of a mixture of taxifolin glucoside and L-tyrosine. The model used for this comparison was a co-culture of Normal Human Epidermal Keratinocytes (NHEKs) and Normal Human Melanocytes (NHMs).
The cell culture was realized with primary cells isolated from human skin biopsies.
Normal Human Keratinocytes (NHKs) were seeded at 60000 cells per well in 6-wells plates pre-coated with collagen I. 4 hours later, Normal Human Melanocytes (NHMs) were seeded at 60 000 cells per well in the same 6-wells plates. The cells were incubated for 48 hours in complete medium (EpiLife® supplemented with HKGS=Human Kerationcyte Growth Supplement).
After 48 hours of culture, the cells were stimulated for 5 days with the following compositions: • L-tyrosine at 450 μg/mL (Sigma) • Taxifolin glucoside at 0.13 μg/mL • Taxifolin glucoside at 0.13 μg/mL+N-acetyl tyrosine at 15 μg/mL (similar to Example 1) • Taxifolin glucoside at 0.13 μg/mL+L-tyrosine at 15 μg/mL (Sigma)
The compositions were diluted in a basal medium without supplements (EpiLife®). Every 2 days, the treatments were renewed.
After 5 days of treatment, cells were rinsed off with PBS. Then, in each well, 200 μL of a 0.5N NaOH solution was added. The cell lysates were collected in 1.5 mL microtubes with secure caps. In parallel, a standard range of melanin was prepared (1000 μg/mL). Microtubes of samples and standard range were heated for 1 hour at 80° C. in a dry bath. After the heating, 100 μL of each sample was transferred to a 96-wells plate.
Optical density was measured at 405 nm to determine the melanin content. […]
If it was not significant, the data was evaluated with statistical parametric tests (ANOVA followed by Dunnett's multiple comparisons test).
If it was significant, the data was evaluated with statistical non parametric tests (ANOVA of Kruskall-Wallis followed by a Mann-Whitney U test).

For data set [2], the system named is melanocytes and melanoblasts in Anagen VI human hair follicles. In words: NKI/beteb melanocyte quantification in micro-dissected hair follicles under oxidative stress (Example 5). To be noted: cumene hydroperoxide oxidative stress. The format is cell-based. Here is the method:
Anagen VI human hair follicles (HFs) were dissected from the scalp (Donor). The HFs used were selected after 18 hours of pre-culture. The following parameters were evaluated in the selection procedure: growth rate (>0.18 mm/18 hours), morphology (no signs of dystrophy).
Starting from day 1, after the selection at day 0, the test compounds were dissolved in the culture medium and the HFs were cultured up to planned endpoints. Twelve hair follicles were used per treatment for each read out parameter. The culture medium was renewed every other day.
Total melanocytes quantification was obtained following NKI/beteb-DAPI double immunostaining of the cryo-sections. NKI/beteb antibody (#MON7006-1 by Monosan) recognizes a (pre-) melanosomal antigen present in all melanocytes (i.e. both active melanocytes and melanoblasts).
On the immunostained sections, image analysis was performed in order to quantify the number of NKI-beteb positive cells within each hair follicle. The obtained value was normalized relative to the total number of cells of the considered area.
Image analysis was performed using ImageJ software (NIH, USA).
All quantitative data was summarized in terms of the mean score, standard deviation and standard error of the mean for each treatment.
Differences between groups were evaluated by One-way ANOVA with permutation test followed by Tukey and t-test with permutation.

The subject of data set [3] is Anagen VI human hair follicles. In words: ROS evaluation (DCFH-DA) in micro-dissected hair follicles under cumene hydroperoxide stress (Example 5). It counts as cell-based. To be noted: 50 μM cumene hydroperoxide, 1 hour (oxidative stimulus).
Experimental: After the selection, the HFs were incubated for 1 hour with the standard solution from Example 1 dissolved in William's E medium. Afterwards, the HFs were cultured for 30 min in the presence of dichlorofluoerescein diacetate (DCFH-DA), a probe that reacts with ROS to become fluorescent. […] At the end of the experimental phase, the HFs were harvested, cryo-fixed and cut at the cryo-micro-tome for consequent image acquisition and image analysis of fluorescence within the sections. A slide for each HF was processed by image acquisition and related analysis (i.e. 12 images for each treatment). […]
The test system of the next data set is melanogenesis. To be noted: Sang Mi An et al. Phytother. Res. 22, 1200-1207 (2008); cited from earlier work.
The next data set in a line: Solubility. The format is physicochemical.

≈ marks a conversion by molar mass, not a printed value. Like-named read-outs stand apart in the source and are kept apart here.

Taxifolin glucoside: the results for the “effect on melanin synthesis / melanin content (in words)” value in data set [1] and in data set [1] (listed as taxifolin glucoside) were “not able to induce synthesis of melanin” and “does not have any influence”, respectively.

Take cumene hydroperoxide: the “reduction of the number of melanocytes compared to the untreated condition” value in data set [2] is recorded as 78%. Further, in data set [3], the “increase of ROS production compared to the untreated condition” value is “+256%”.

`O=C1c2c(O)cc(O)cc2O[C@H](c2ccc(O)c(O)c2)[C@H]1O` [taxifolin]: the “effect on melanogenesis (in words)” value in the data set on melanogenesis is listed as “inhibit melanogenesis”. The solubility in “Solubility” (water with taxifolin glucoside, aqueous with cosolvent or surfactant or cyclodextrin, suitable amounts of taxifolin glucoside, molar ratio about 1:1, read-out: solubility of taxifolin in water in the presence of taxifolin glucoside) is at least 20000 µg/mL; in the data set “Solubility” (water, typical, read-out: solubility of taxifolin in water) it was around 1000 µg/mL (≈ 3.29 mM).

With `N[C@@H](Cc1ccc(O)cc1)C(=O)O` [L-tyrosine], the “melanin content / synthesis of melanin, change compared to the untreated condition” value in data set [1] (L-tyrosine 450 μg/mL, taxifolin glucoside 0.13 μg/mL + N-acetyl tyrosine 15 μg/mL, p<0.001) is reported as “+35%”.

By solubility is commonly meant the dissolved amount per volume that the medium holds.

The record behind these values is patent publication US20210378934A1, “HAIR CARE ACTIVE AGENT” (GIVAUDAN SA, priority 2018, published 2021).
